In paper PMC10305119, “Analogs of 6-Bromohypaphorine with Increased Agonist Potency for α7 Nicotinic Receptor as Anti-Inflammatory Analgesic Agents” (Marine Drugs, 2023):
Like-named read-outs stand apart in the source and are kept apart here.

Assays:
[1] = test system: α7 nAChR; set-up: method as in PMID 25775422; conditions: cited from earlier work; for EC50: read-out: EC50 / potency for α7 nAChR
[2] = test system: CD86 expression on macrophages; test: Flow cytometry of CD86 protein on macrophages; type: cell-based, human; conditions: 48 h incubation
Protocol: (§1) The effect of the above-listed compounds on the expression of the TLR4 receptor and the CD86 protein was studied by flow cytometry after 48 h incubation with macrophages. The interaction of bacterial endotoxins with the TLR4 receptor is known to activate the expression of several pro-inflammatory cytokine genes, while the co-stimulatory molecule CD86 plays an important role in […] inflammatory responses. A decrease in the expression of the TLR4 receptor was observed under the action of all tested compounds (Figure 4c,e), the rank order of these TLR4-suppressing effects was as follows: hypaphorine (14%) < PNU 282,987 (21%) < 6ID (31%).
(§2) Peripheral blood mononuclear cells (PBMCs) were separated by Ficoll-Paque PLUS density gradient centrifugation. PBMCs were placed in a sterile Petri dish and incubated at 37 °C for 2 h. Unattached cells were then removed by washing with PBS and substituted with fresh complete RPMI 1640 medium. To generate monocyte-derived macrophages (MDMs), 50 ng/mL GM-CSF was added to the isolated monocytes and cultured for 6 days to differentiate them into non-polarized MDMs.
(§3) Figure 4 The effects of PNU 282987, hypaphorine, and D-6-iodohypaphorine methyl ester (6ID) on macrophage membrane proteins expression. Cells were treated with these compounds for 48 h and then analyzed by flow cytometry. PNU 282,987 led to an increase in the (a) CD11b and (b) CD11c expression. (c): All tested compounds led to a decrease in TLR4 expression. (d): Macrophages stimulation with hypaphorine and 6ID promoted an increase in CD86 expression. Results obtained in three independent experiments on macrophages from different donors and presented as mean ± SD. One-way ANOVA tests with Tukey post hoc test: * p ˂0.05, ** p ˂ 0.01, **** p < 0.0001 in comparison with untreated cells.

[3] = test system: STAT3 phosphorylation; test: STAT3 phosphorylation in LPS-stimulated macrophages (flow cytometry); type: cell-based, human; conditions: compound 1 h, then LPS 3 h; control MFI 49
Protocol: To gain an insight into the signaling induced by the tested compounds, ERK1/2 and STAT3 phosphorylation was checked. Macrophages were treated with tested compounds for 1 h, after which they were stimulated with LPS for 3 h.
as §2
Figure 5 Effects of the analyzed compounds on signaling pathways in LPS-stimulated macrophages. Cells were treated with PNU 282987, hypaphorine, or 6-iodohypaphorine methyl ester (6ID) for 1 h and then stimulated with LPS for 3 h. Phosphorylated ERK1/2 and STAT3 were quantified by flow cytometry with specific antibodies. […] (c): Representative histogram showing the increase in ERK 1/2 phosphorylation in comparison to control. The numbers in the histograms show the MFI ± SD (n = 3). MFI—geometrical mean fluorescence intensity. One-way ANOVA tests with Tukey post hoc test: * p ˂ 0.05, ** p ˂ 0.01, *** p < 0.001 in comparison with untreated cells. TEXT PRINTED IN THE PICTURE: (c) Control: PE-ERK 1/2 Phospho: 193.7±1.5 | (c) PNU 282987: PE-ERK 1/2 Phospho: 251.3±13.7 | (c) Hy: PE-ERK 1/2 Phospho: 246.0±15.7 | (c) 6ID: PE-ERK 1/2 Phospho: 273.7±8.1 DOUBTS OF THE COPYIST ABOUT THIS PICTURE: Panel c: no measure or unit is printed beside the numbers; the x-axis label "PE-ERK 1/2 Phospho" is used as the measure / "Control" is the untreated reference rather than a substance; it is included because a value is printed with it

[4] = test system: CD11b expression on macrophages; test: Flow cytometry of macrophage membrane protein CD11b; type: cell-based, human; conditions: 48 h
Protocol: (§4) The selective agonist PNU 282,987 increased CD11b and CD11c protein expression by an average of 10% and 26%, respectively (Figure 4a,b).
as §2, §3

[5] = test system: TLR4 expression on macrophages; test: Flow cytometry of TLR4 receptor on macrophages; type: cell-based, human; conditions: 48 h incubation
Protocol: as §1, §2, §3

[6] = test system: CD11c expression on macrophages; test: Flow cytometry of macrophage membrane protein CD11c; type: cell-based, human; conditions: 48 h
Protocol: as §4, §2, §3

[7] = molecular target: T1, human α7 nAChR (Homo sapiens, UniProt P36544); test: Calcium fluorescence assay on α7 nAChR expressed in Neuro2a cells, in the presence of PNU120596; type: cell-based; conditions: for EC50: human α7 nAChR in Neuro2a cells, PNU120596 10 μM present
T1 construct: expressed in transfected cells; host or cells: mouse neuroblastoma Neuro2a, transient co-transfection with Ric-3 (Ric3-pCMV6-XL5, OriGene) and the calcium sensor Case12
Protocol: A panel of the synthesized compounds was tested to determine their activity on α7 nAChR by fluorescence detection of cytoplasmic calcium rise (Figure 2a).
Mouse neuroblastoma Neuro2a cells were purchased from the Russian collection of cell cultures (Institute of Cytology, Russian Academy of Sciences, Saint Petersburg, Russia). Cells were cultured in Dulbecco’s modified Eagle’s essential medium (Paneco, Moscow, Russia) supplemented with 10% fetal bovine serum (Sigma, St. Louis, MO, USA). The cells one day before transfection were subcultured and plated at a density of 10,000 cells per well on a 96-well plate. The next day, Neuro2a cells were transiently transfected with plasmids coding α7 nAChR (human α7 nAChR-pCEP4) or its mutants, the chaperone Ric-3 (Ric3-pCMV6-XL5, OriGene, USA) and a fluorescent calcium sensor Case12 (pCase12-cyto vector, Evrogen, Russia) in molar ratio 4:1:1. Lipofectamine transfection protocol (Invitrogen, Waltham, MA, USA) was performed as recommended by the manufacturer. Transfected cells were grown at 37 °C in a CO2 incubator for 48 h.
Calcium […] assay was performed as described previously. Briefly, Transfected Neuro2a cells were grown on black 96-well plates (Corning, Somerville, MA, USA) at 37 °C in a CO2 incubator for 72 h, then growth medium was substituted with buffer containing 140 mM NaCl, 2 mM CaCl2, 2.8 mM KCl, 4 mM MgCl2, 20 mM HEPES, 10 mM glucose; pH 7.4.
Cells were incubated with the α7 nAChR positive allosteric modulator PNU120596 (10 μM, Tocris, Bristol, UK) for 20 min at room temperature before the addition of tested compounds. Plates were measured in microplate reader Hidex Sence (Hidex, Turku, Finland) using excitation at 485 nm and emission at 535 ± 10 nm. Fluorescence peak intensity in each well was expressed as a percentage of the maximal obtained response. Data files were analysed using Hidex Sence software (Hidex, Turku, Finland). Controls were run in the presence of 4 μM α-cobratoxin.
The R statistical programming environment “https://www.r-project.org/” (accessed on 16 June 2023) was used to analyze the results. Base R graphics and ggplot2 [54] graphical library were used for the data visualisation. Dose-response curves were fitted using “nlm” function and the following equation: response ~ (100/1 + (EC50/x)^n), where x denotes base 10 logarithm of ligand concentration in moles per liter (normalized to 1M) and n is the Hill coefficient. Libraries “rgl” “https://CRAN.R-project.org/package=rgl” (accessed on 16 May 2023) and “barplot3d” “https://cran.r-project.org/src/contrib/Archive/barplot3d/” (accessed on 16 May 2023) were used to generate the 3D bar chart shown on Figure 2b.
Figure 2 In vitro activity determination of the synthesized compounds. […] The receptor activation was detected as an increase in fluorescent signal in cell cytoplasm by fluorescence microscopy or as total fluorescence of the well in 96-well plate reader setup. Normalized fluorescence amplitude was plotted against base 10 logarithm of mole per liter concentration of the tested agonist and EC50 values were than calculated using dose-response equation. […] Substitutions in the 6th position of the indole ring (designated as X) were halogens (green shadow), hydrogen bond acceptors (yellow shadow) or hydrogen bond donors (blue shadow). Carboxy group modifications were comprised by free acid (Q = OH), ethers (Q = OCH3, OC2H5), and amides (Q = NH2, NHCH3).

[8] = molecular target: T2, human α3-containing nAChRs (Homo sapiens, UniProt P32297); test: Calcium imaging of α3-containing nAChRs in SH-SY5Y cells (nicotine-induced calcium rise); type: cell-based; conditions: for agonism on α3* nAChR (calcium response): compound alone
T2 construct: endogenous in cells; host or cells: human neuroblastoma SH-SY5Y
Protocol: Two of the studied compounds with high and medium agonist potency for α7 nAChR (6CF and 6ID, Table 1) were tested for activity toward α3* nAChR by calcium imaging.
Normalized data are presented as mean ± standard error. n = 6–7.

T1 sequence (P36544 23-502): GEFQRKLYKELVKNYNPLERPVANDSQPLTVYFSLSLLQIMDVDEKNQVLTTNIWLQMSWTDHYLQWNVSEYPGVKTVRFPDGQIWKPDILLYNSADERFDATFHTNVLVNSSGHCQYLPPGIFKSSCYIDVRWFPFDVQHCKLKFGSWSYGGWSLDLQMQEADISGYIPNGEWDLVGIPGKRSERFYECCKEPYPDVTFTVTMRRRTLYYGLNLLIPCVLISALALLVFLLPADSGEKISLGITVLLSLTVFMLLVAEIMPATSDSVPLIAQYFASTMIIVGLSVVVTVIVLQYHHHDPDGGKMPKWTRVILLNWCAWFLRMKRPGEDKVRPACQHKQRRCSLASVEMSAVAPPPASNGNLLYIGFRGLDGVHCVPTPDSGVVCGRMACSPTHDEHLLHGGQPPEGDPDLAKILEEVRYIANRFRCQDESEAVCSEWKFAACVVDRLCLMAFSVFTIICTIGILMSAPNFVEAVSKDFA
T2 sequence (P32297 32-505): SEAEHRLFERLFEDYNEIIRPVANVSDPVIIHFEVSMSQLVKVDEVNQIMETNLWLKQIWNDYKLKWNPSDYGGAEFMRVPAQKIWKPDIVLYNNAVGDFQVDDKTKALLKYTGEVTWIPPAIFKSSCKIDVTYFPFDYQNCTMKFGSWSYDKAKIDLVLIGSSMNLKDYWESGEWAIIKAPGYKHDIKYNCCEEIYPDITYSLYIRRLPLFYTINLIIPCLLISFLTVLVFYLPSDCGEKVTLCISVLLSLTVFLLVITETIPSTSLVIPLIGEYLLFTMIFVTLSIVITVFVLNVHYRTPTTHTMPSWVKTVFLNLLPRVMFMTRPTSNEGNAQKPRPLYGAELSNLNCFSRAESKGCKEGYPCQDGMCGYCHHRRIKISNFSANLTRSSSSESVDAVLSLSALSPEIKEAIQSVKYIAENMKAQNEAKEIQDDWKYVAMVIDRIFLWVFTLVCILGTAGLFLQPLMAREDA

With `C[N+](C)(C)[C@@H](Cc1c[nH]c2cc(Br)ccc12)C(=O)[O-]` [6-bromohypaphorine] as the molecule, how does the “α7 nAChR agonistic activity” value ([1]; as previously reported) read?
Its value is “agonistic activity in high micromolar concentrations”.

What does the source list for `O=C(N[C@H]1CN2CCC1CC2)c1ccc(Cl)cc1` [PNU 282,987]?
increase in the expression of CD86 [2]: no effect; STAT3 phosphorylation, MFI [3]: increase in the phosphorylation; increase in CD11b protein expression [4]: 10%; decrease in the expression of the TLR4 receptor [5]: 21%; increase in CD11c protein expression [6]: 26%

What does the source list for `COC(=O)[C@H](Cc1c[nH]c2ccccc12)[N+](C)(C)C` [Compound 4, methyl ester of L-hypaphorine]?
increase in the expression of CD86 [2]: 26%; EC50 ([7]; read-out: EC50): 27 µM

For `COC(=O)[C@@H](Cc1c[nH]c2cc(C(F)(F)F)ccc12)[N+](C)(C)C` [Compound 15, (D)-6-trifluoromethylhypaphorine methyl ester], which EC50 ([7]; read-out: EC50) is on record?
Its EC50 is 5.14 µM.

What about the “agonism on α3* nAChR (calcium response)” value ([8]; listed as 6CF) of the same molecule?
Its value is “Neither 6ID, which was most active agonist of α7 nAChR, nor 6CF showed detectable agonism on α3* nAChR at concentrations up to 30 µM”.

What about the “agonism on α3* nAChR (calcium response)” value ([8]; listed as 6CF3) of the same molecule?
The value was “does not evoke noticeable calcium response in concentrations 10, 1, and 0.1 μM”.

What about the IC50 ([8]; inhibition of nicotine (100 μM)-induced calcium rise) of the same molecule?
Its IC50 is 2.4 ± 1.2 µM.

Which results are given for `C[N+](C)(C)C(Cc1c[nH]c2cc([N+](=O)[O-])ccc12)C(=O)[O-]` (stereo not shown) [Compound 14, 6-nitrohypaphorine]?
α7 nAChR agonistic activity ([7]; at concentrations up to 1 mM, PNU 120,596 present): does not show any agonistic activity; EC50 [7]: no agonistic activity
